Literature values in US20250339398A1, “TREATMENT OF SLEEP DISTRUBANCES IN AUTISM SPECTRUM DISORDER PATIENTS” (Vanda Pharmaceuticals Inc., priority 2021, published 2025).

Tests used:
[1] = previous clinical studies in healthy volunteers, primary insomnia, Non-24, pediatric SMS
MT2 receptor = molecular target: T1, MT2 receptor (Homo sapiens, UniProt P49286); conditions: MT2 receptor versus MT1 receptor
T1 sequence (P49286 1-362): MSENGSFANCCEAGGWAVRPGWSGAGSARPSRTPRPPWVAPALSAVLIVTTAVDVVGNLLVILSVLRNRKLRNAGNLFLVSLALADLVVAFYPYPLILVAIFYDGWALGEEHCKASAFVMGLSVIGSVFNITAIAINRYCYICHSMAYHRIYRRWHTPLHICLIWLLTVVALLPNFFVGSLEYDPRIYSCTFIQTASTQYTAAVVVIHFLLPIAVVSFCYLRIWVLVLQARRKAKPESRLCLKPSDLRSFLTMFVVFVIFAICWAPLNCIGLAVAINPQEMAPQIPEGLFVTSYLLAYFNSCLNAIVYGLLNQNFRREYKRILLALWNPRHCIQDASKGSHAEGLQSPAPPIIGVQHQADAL

- linearity of pharmacokinetics (doses ranging from 3 mg to 300 mg): linear
- absolute bioavailability (in vivo): 38%
Structure (SMILES): CCC(=O)NC[C@@H]1C[C@H]1c1cccc2c1CCO2 [Tasimelteon, tasimelteon]
- safety and tolerability [1]: safe and well-tolerated
- affinity for the MT2 receptor relative to the MT1 receptor (MT2 receptor): greater affinity for the MT2 receptor than the MT1 receptor
